According to ChEMBL document CHEMBL1143953, “Novel 2-phenylquinolin-7-yl-derived imidazo[1,5-a]pyrazines as potent insulin-like growth factor-I receptor (IGF-IR) inhibitors” (Bioorg Med Chem, 2008):

Assays:
Cytochrome P450 3A4 = Cytochrome P450 3A4 (Homo sapiens, UniProt P08684); assay: Inhibition of CYP3A4; assay type: ADME
[1] = biological target: Insulin-like growth factor 1 receptor (Homo sapiens, UniProt P08069)
Chain of Insulin-like growth factor 1 receptor (P08069 31-736 limits assumed): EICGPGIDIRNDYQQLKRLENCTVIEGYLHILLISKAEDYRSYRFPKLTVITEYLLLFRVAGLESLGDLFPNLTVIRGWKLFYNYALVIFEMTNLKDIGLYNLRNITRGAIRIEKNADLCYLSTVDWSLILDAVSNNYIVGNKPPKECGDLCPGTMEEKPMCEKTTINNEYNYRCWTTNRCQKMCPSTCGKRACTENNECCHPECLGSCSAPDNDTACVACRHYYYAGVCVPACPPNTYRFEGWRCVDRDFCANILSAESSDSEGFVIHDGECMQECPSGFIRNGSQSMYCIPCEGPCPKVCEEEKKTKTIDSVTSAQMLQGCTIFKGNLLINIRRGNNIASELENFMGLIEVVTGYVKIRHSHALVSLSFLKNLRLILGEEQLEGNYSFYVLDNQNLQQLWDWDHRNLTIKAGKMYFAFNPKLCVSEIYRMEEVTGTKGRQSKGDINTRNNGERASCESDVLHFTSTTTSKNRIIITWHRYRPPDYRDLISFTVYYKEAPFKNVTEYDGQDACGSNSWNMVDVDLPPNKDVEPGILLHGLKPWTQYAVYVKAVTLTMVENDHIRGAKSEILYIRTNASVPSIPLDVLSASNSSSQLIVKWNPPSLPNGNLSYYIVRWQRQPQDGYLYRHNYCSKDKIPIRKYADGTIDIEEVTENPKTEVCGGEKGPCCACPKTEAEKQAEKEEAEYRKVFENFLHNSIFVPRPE
Chain of Insulin-like growth factor 1 receptor (P08069 741-1367 limits assumed): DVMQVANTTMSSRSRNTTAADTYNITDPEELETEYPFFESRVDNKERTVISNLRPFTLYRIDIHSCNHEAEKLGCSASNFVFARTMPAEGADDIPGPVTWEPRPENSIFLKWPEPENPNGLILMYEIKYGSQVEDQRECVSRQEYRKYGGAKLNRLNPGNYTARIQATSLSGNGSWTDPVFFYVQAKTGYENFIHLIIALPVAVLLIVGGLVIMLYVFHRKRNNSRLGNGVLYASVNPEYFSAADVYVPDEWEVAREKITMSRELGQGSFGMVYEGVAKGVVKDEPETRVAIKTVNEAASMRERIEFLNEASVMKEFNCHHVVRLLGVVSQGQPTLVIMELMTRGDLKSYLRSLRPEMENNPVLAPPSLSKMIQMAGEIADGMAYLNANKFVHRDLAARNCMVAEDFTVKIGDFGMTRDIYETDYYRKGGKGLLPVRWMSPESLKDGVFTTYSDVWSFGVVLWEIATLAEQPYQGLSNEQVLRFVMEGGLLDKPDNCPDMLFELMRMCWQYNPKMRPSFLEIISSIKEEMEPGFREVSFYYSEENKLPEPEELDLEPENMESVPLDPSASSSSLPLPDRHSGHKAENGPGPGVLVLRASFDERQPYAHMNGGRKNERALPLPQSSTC
Description: Inhibition of human recombinant full length IGF1R expressed in mouse 3T3 cells

Chain of Cytochrome P450 3A4 (P08684 whole entry): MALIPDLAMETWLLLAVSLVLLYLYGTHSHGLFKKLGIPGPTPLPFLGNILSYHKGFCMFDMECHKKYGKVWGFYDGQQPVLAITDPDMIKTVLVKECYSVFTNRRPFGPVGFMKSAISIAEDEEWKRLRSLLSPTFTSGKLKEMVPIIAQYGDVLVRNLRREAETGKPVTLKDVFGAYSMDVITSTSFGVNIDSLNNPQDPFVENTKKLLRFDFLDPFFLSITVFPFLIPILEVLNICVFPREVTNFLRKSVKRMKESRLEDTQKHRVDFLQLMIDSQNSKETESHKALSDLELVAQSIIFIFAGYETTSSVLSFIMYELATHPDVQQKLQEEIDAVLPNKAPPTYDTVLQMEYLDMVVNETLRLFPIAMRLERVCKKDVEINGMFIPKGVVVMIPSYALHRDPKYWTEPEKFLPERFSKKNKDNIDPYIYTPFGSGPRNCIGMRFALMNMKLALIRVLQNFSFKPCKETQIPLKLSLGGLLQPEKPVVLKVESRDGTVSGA

IC50 (Cytochrome P450 3A4) [µM] | IC50 [1] [µM] | Compound
> 20 |  | Nc1nccn2c1c(-c1ccc3ccc(-c4ccccc4)nc3c1)nc2[C@H]1C[C@@H](CN2CCOCC2)C1
12 |  | Nc1nccn2c1c(-c1ccc3ccc(-c4ccccc4)nc3c1)nc2[C@H]1C[C@@H](N2CCOCC2)C1
15 |  | CN(C)C[C@H]1C[C@@H](c2nc(-c3ccc4ccc(-c5ccccc5)nc4c3)c3c(N)nccn32)C1
15 |  | CN(C)C[C@H]1C[C@H](c2nc(-c3ccc4ccc(-c5ccccc5)nc4c3)c3c(N)nccn32)C1

Second part, the compound before the results:

Compound | IC50 (Cytochrome P450 3A4) [µM] | IC50 [1] [µM]
Oc1nccn2c(C3CCC3)nc(-c3ccc4ccc(-c5ccccc5)nc4c3)c12 |  | > 10
CN(C)[C@H]1C[C@@H](c2nc(-c3ccc4ccc(-c5ccccc5)nc4c3)c3c(N)nccn32)C1 | 19 | 
Nc1nccn2c1c(-c1ccc3ccc(-c4ccccc4)nc3c1)nc2[C@H]1C[C@@H](N2CCSCC2)C1 | 7.8 | 
